Legend:
22Rv1 = assay: Effect of APR-246 on cell viability in cancer cell lines; assay type: cell-based; conditions: Homo sapiens, Prostate carcinoma 22Rv1, mean±SD
Description: (§1) The therapeutic activity of the compound 2-(hydroxymethyl)-2-(methoxymethyl)-quinuclidin-3-one (herein also referred to as APR-246) in the treatment of various cancers has been shown by in vitro assays using various cancer cell lines, cf. Table 2, wherein the IC50 of APR-246 in various types of cancerous cells is shown.
(§2) In Table 2, the results are shown as mean±SD; the IC50 values are calculated as the average of the IC50 values in the individual experiments.

BT-474 = assay: as above; assay type: cell-based; conditions: Homo sapiens, Breast ductal carcinoma BT-474, mean±SD
Description: as §1, §2

H1299-His175 = assay: as above; assay type: cell-based; conditions: Non-small cell lung carcinoma H1299-His175, mean±SD
Description: as §1, §2

H1299 = assay: as above; assay type: cell-based; conditions: Homo sapiens, NCI-H1299, Non-small cell lung carcinoma H1299, mean±SD
Description: as §1, §2

HT-29 = assay: as above; assay type: cell-based; conditions: Homo sapiens, Colorectal adenocarcinoma HT-29, mean±SD
Description: as §1, §2

KBM3 = assay: as above; assay type: cell-based; conditions: Acute Myelomonocytic Leukaemia KBM3, mean±SD
Description: as §1, §2

MCF-7 = assay: as above; assay type: cell-based; conditions: Homo sapiens, MCF7, Breast adenocarcinoma MCF-7, mean±SD
Description: as §1, §2

MDA-MB-231 = assay: as above; assay type: cell-based; conditions: Homo sapiens, Breast adenocarcinoma MDA-MB-231, mean±SD
Description: as §1, §2

PC3-175 = assay: as above; assay type: cell-based; conditions: Prostate adenocarcinoma PC3-175, mean±SD
Description: as §1, §2

PC3-puro = assay: as above; assay type: cell-based; conditions: Prostate adenocarcinoma PC3-puro, mean±SD
Description: as §1, §2

SaOS-2-His273 = assay: as above; assay type: cell-based; conditions: Osteosarcoma SaOS-2-His273, mean±SD
Description: as §1, §2

SaOS-2 = assay: as above; assay type: cell-based; conditions: Homo sapiens, Osteosarcoma SaOS-2, mean±SD
Description: as §1, §2

U-2OS = assay: as above; assay type: cell-based; conditions: Homo sapiens, U2OS, Osteosarcoma U-2OS, mean±SD
Description: as §1, §2

AML MV-4-11 cells = assay: Hollow fiber in vivo mouse model; conditions: AML MV-4-11 cells in hollow fibers in mice; end of the experiment; by number
Description: Data is shown as mean±SEM (n=7-8).
Furthermore, in vivo experiments using the hollow fiber mouse model with 2-(hydroxymethyl)-2-(methoxymethyl)quinuclidin-3-one indicate that inventive compounds have a significant anti-leukemic effect. These experiments were performed using the hollow fiber in vivo mouse model (for a short description of the model, cf. the internet website http://dtp.nci.nih.gov/timeline/noflash/milestones/M13_hollow_fiber.htm).

[1] = Stability studies of APR-246 in an aqueous system at different pH; assay type: physicochemical
Description: Several aqueous formulations of APR-246 and of the hydrochloric acid addition salt of APR-246 were prepared and tested for stability.
The stability increases with decreased pH. To establish a suitable pH for APR-246 with respect to stability, studies with the drug substance in different solutions at different pH were performed.
(§3) HPLC—Chromatography was performed on an Agilent 1100/1200 series HPLC system using a Purospher Star RP-18e, 5 μm (250×4.6) mm Column at 20° C. Sample temperature was set to 5° C. by a thermostat. Detection was accomplished by means of a UV/VIS DAD detector at 210 nm. The flow rate was set to 1.0 mL/min and the injection volume was 10 μL. The mobile phase used was a gradient of phosphate buffer (A) in acetonitrile (B): 0-5 min: 90% A, 5-20 min: 70% A, 20-35 min: 20% A, 35-45 min: 90% A. The calibration was obtained using pure APR-246 standard solutions freshly prepared prior to analyses. Data acquisition was performed electronically. The method has been validated.

[2] = Long term stability studies of APR-246 in aqueous system; assay type: physicochemical
Description: as §3, with “APR-246 stock solutions were manufactured at a concentration of about 150 mg/mL at pH 3.9. The finished product consisted of 21.5-22.0 mL of drug product aseptically filled into presterilized 50 mL glass vials. The manufacturing was in compliance with Good Manufacturing Practices regulations. […] HPLC—Chromatography” for “HPLC—Chromatography”

[3] = HPLC-UV before and after autoclaving of APR-246 solution; assay type: physicochemical; conditions: autoclaving at 121° C.
Description: as §3, with “validated. The APR-246 drug product was a sterile concentrate for solution for infusion. The solution was sterilised by filtration according to Ph Eur standard method and aseptically filled in vials.” for “validated.”

[4] = Infusion bag compatibility study; assay type: physicochemical
Description: as §3, with “validated. This example summarizes the results of a compatibility study of the APR-246 drug product (150 mg/mL stock solution) in six infusion bags, to confirm physical and chemical stability of the drug product in the NaCl solution and compatibility with infusion bags and tubing device material. The drug product should be diluted with sterile 0.9% NaCl solution for infusion to a total volume of 500 ml before administration. The duration of the study covers a period beyond finalisation of infusion to the patient. The study was designed for a worst case lowest dose of 0.15 mg/mL and for a worst case highest dose of 24 mg/mL. […]” for “validated.”

[5] = Solubility and pH of APR-246 in water solutions; assay type: physicochemical

Which IC50 (22Rv1) does the source give for `COCC1(CO)C(=O)C2CCN1CC2` (stereo not shown) [APR-246, 2-(hydroxymethyl)-2-(methoxymethyl)quinuclidin-3-one] here?
Its IC50 is 10 ± 0.6 µM.

What about the IC50 (BT-474) of the same compound?
The IC50 was 3 ± 2 µM.

And the IC50 (H1299-His175)?
The IC50 was 14 ± 8 µM.

What about the IC50 (H1299) of the same compound?
The IC50 was 16 ± 7 µM.

And the IC50 (HT-29)?
Its IC50 is 25 ± 5 µM.

What about the IC50 (KBM3) of the same compound?
Its IC50 is 7 ± 1 µM.

And the IC50 (MCF-7)?
The IC50 was 15 ± 1 µM.

What about the IC50 (MDA-MB-231) of the same compound?
Its IC50 is 18 ± 5 µM.

And the IC50 (PC3-175)?
Its IC50 is 23 ± 7 µM.

What about the IC50 (PC3-puro) of the same compound?
The IC50 was 27 ± 3 µM.

What about the IC50 (SaOS-2-His273) of the same compound?
The IC50 was 14 ± 3 µM.

What about the IC50 (SaOS-2) of the same compound?
Its IC50 is 27 ± 5 µM.

What about the IC50 (U-2OS) of the same compound?
Its IC50 is 15 ± 4 µM.

What about the “net growth of leukemic cells” value (AML MV-4-11 cells) of the same compound?
The value was “about −25%”.

And the “stability of formulations with pH above 6” value ([1]; pH above 6, model systems of Table 3)?
The value was “stability problems”.

What about the “degradation in aqueous solutions” value ([1]; room temperature and lower temperatures, regardless of the concentration profile) of the same compound?
The value was “suffered from degradation”.

And the “long term stability in the inventive formulation” value ([2]; formulated for clinical use, about 150 mg/mL, pH 3.9)?
The value was “stable”.

And the “expected degradation on storage” value ([2]; over a period of two years, stored at 2-8° C.)?
The value was “no significant degradation”.

And the “degradation on autoclaving the solution in the final container” value [3]?
The value was “degradation was too pronounced”.

And the “stability in infusion bag over the range of the study” value ([4]; high concentration)?
The value was “satisfactory stability”.

What about the “stability in infusion bag over the range of the study” value ([4]; low concentration) of the same compound?
Its value is “satisfactory stability”.

And the “solubility in water solutions” value [5]?
Its value is “readily soluble”.

Reference: patent US9061016B2, “Aqueous solution comprising 3-quinuclidinones for the treatment hyperproliferative, autoimmune and heart disease” (APREA AB, priority 2010, dated 2015)
